# Tests used:
# Male Sprague-Dawley rats [1] = assay: Effect on circulating GLP-1 and GIP in vivo in rats; details: 10 mg/kg oral
# Description: On the day before the experiment, food was removed in the afternoon and the following morning animals were randomly assigned to two treatment groups, vehicle (n=7) or a GPR119 agonist (Example 1; n=8). Blood samples were collected prior to, and 90 minutes following oral administration of either vehicle (0.5% HPMC/0.1% Tween80) or 10 mg/kg of Example 1. Blood samples were treated as described above and analyzed for incretin hormones, plasma glucose and insulin. The rats were sacrificed at the end of the study by an overdose of Nembutal® pentobarbital.
# Data is represented as line graphs of the measurements prior to gavage (Pre) and 90 min following administration of vehicle or GPR119 agonist (Post) analyzed for total GLP-1 (FIG. 7), total GIP (FIG. 8), plasma glucose (FIG. 9) and insulin (FIG. 10) for individual animals.
# Male Sprague-Dawley rats [2] = assay: Glucose stimulated insulin secretion and glucose disposal in rats, intravenous glucose tolerance test; format: in vivo; details: 10 mg/kg oral, 0.5 g/kg dextrose i.v. 90 min after dosing, vs vehicle
# Description: Male Sprague-Dawley rats (Charles River Laboratories, USA) had catheters surgically implanted into the jugular vein and allowed to recover for one week. On the day of the experiment, food was removed in the morning and animals were randomly assigned to two treatment groups, vehicle (n=8) or GPR119 agonist (Example 1; n=9). In the afternoon, baseline blood samples were collected prior to, and 90 minutes following oral administration of either vehicle (0.5% HPMC/0.1% Tween80) or 10 mg/kg Example 1. The intravenous glucose tolerance test was initiated immediately after the 90 minute blood sample by intravenous infusion of 0.5 g/kg dextrose over 15-30 seconds into the jugular vein, Blood samples were collected from the jugular vein at 2, 5, 10, 15, and 30 min and treated as described for the hyperglycemic clamp. Serum was collected for analysis of glucose levels using an Olympus AU640 clinical chemistry analyzer (Olympus America Inc, Melville, N.Y.) and insulin levels by an electrochemoluminescence assay (Bioveris, Gaithersburg Md.). The rats were sacrificed at the end of the study by an overdose of Nembutal.
# FIG. 14 and FIG. 15 show circulating plasma glucose and insulin concentrations at each time point throughout the intravenous glucose tolerance test. The data is represented as the average glucose and insulin levels±SEM for all animals in for the two treatment groups.
# male C57BL/6 mice = assay: Oral glucose tolerance in normal mice; format: in vivo; details: fasted mice, Example 1 30 mg/kg, DPPIV inhibitor 10 mg/kg oral, 2 g/kg dextrose oral 1 h after dosing
# Description: Nine weeks old male C57BL/6 mice (Taconic farms, USA) were fasted overnight and randomly assigned to three different treatment groups (n=9-10 per treatment arm) to receive vehicle (0.5% HPMC/0.1% Tween80), a GPR119 agonist (Example 1, 30 mg/kg) or a positive control (10 mg/kg), specifically a DPPIV inhibitor known to improve glucose tolerance in vivo by preventing degradation of the GLP-1 and GIP. Vehicle or compounds were delivered by oral gavage at a volume of 10 mL/kg, and the tip of tail was nicked using a scalpel to allow whole blood glucose measurements. One hour after administration of vehicle or test compounds, 2 g/kg of dextrose was administered by oral gavage. Whole blood glucose levels were determined from the abrasion at the tip of the tail at time points as indicated in FIG. 16 using a Glucometer (Freestyle, Therasense). At the end of the study the mice were sacrificed by cervical dislocation.
# Male Sprague-Dawley rats [3] = assay: Oral glucose tolerance in rats; format: in vivo; details: fasted rats, 10 mg/kg oral
# Description: Eight weeks old male Sprague-Dawley rats had catheters surgically implanted into the jugular […] vein and allowed to recover for one week. Food was removed in the afternoon the day before the experiment to fast animals overnight. The following morning animals were randomly assigned to treatment groups to receive vehicle (n=7) (0.5% HPMC/0.1% Tween80), a GPR119 agonist (Example 1, 10 mg/kg) or a positive control (10 mg/kg), namely a DPPIV inhibitor as described above. Vehicle and compounds were delivered by oral gavage at a volume of […]. Two and a half hours after administration of vehicle or GPR119 agonist and one hour administration of DPPIV inhibitor, 2 g/kg dextrose was administered orally. […] The tubes were immediately centrifuged, plasma collected for subsequent measurement of glucose and hormone levels and stored at −80° C. Plasma glucose, insulin and total GLP-1 levels were measured as described above.
# The data is represents as mean values±SEM from all animals within each treatment group.
# Male Sprague Dawley rats = assay: Whole body insulin sensitivity, euglycemic hyperinsulinemic clamp in rats; format: in vivo; details: 10 mg/kg oral
# Description: Male Sprague Dawley rats, weighing at 300-350 gram, had catheters surgically implanted into the jugular and femoral veins and allowed to recover for one week following the surgery. On the day before the experiment, food was removed in the afternoon to fast the animals overnight. The following morning animals were randomly assigned to two treatment groups, vehicle (n=7) and or 10 mg/kg of a GPR119 agonist (Example 1, n=9). Blood samples were collected from the jugular vein for baseline glucose measurements prior to oral administration of the respective treatment. The euglycemic hyperinsulinemic clamp was initiated approximately 90 minutes following oral administration of the respective treatments, by starting the constant insulin infusion at a rate of 1 mU/kg/min human insulin (Humulin, Eli Lilly and Company, Indianapolis, Id.) into the femoral vein of conscious animals. Whole blood glucose levels were measured every 10 minutes throughout the clamp. As the plasma glucose levels began to fall exogenous glucose infusion was started at a variable rate adjusted to achieve a stable plasma glucose level of 90-100 mg/dl. The glucose infusion rate required to maintain euglycemia was recorded throughout the experiment for each animal, and represents a measure of insulin sensitivity. Plasma glucose and human insulin levels were measured at the end of the clamp (at 180 min) as described above. At the end of the study the rats were sacrificed by an overdose of Nembutal.
# Data is represented as box plots summarizing the distribution of data for each treatment group, as described above. Horizontal lines represent the mean data. […] The data is represented as mean GIR±SEM. At steady state, 180 minutes after starting the clamp, the glucose infusion rate required to maintain euglycemia in Example 1 treated animals were three times that of vehicle treated animals.
# [4] = fasted rats, 90 min after dosing vs pre-dose
# [5] = rats, 90 min, vs vehicle or baseline
# [6] = rats, end of clamp (180 min), between treatment groups
smiles,measurement,setting,value
"CC(C)OC(=O)N1CCC(Oc2ncnc3c2CCN3c2ccc(S(C)(=O)=O)cc2F)CC1 [Example 1, 1-Methylethyl 4-({7-[2-fluoro-4-(methylsulfonyl)phenyl]-6,7-dihydro-5H-pyrrolo[2,3-d]pyrimidin-4-yl}oxy)-1-piperidinecarboxylate]",circulating levels of total GIP,Male Sprague-Dawley rats [1]; [4],increases
same,circulating levels of total GLP-1,Male Sprague-Dawley rats [1]; [4],increases
same,fasting glucose,Male Sprague-Dawley rats [1]; [5],not significantly affected
same,fasting insulin,Male Sprague-Dawley rats [1]; [5],not significantly affected
same,area under the glucose curve (AUC),Male Sprague-Dawley rats [2],significantly reduced
same,area under the insulin curve,Male Sprague-Dawley rats [2],significantly increased
same,peak (2 minute) insulin response,Male Sprague-Dawley rats [2],significantly increased
same,rate of glucose elimination,Male Sprague-Dawley rats [2],significantly increased
same,glucose disposal during the oral glucose tolerance test (whole blood glucose),male C57BL/6 mice,significantly enhanced
same,reduction of total glucose area under the curve (AUC),Male Sprague-Dawley rats [3]; Example 1 2.5 h and DPPIV inhibitor 1 h before 2 g/kg dextrose oral,38%
same,glucose excursion during the 120 minutes oral glucose tolerance test,"Male Sprague-Dawley rats [3]; Example 1 2.5 h and DPPIV inhibitor 1 h before 2 g/kg dextrose oral, vs vehicle",significantly decreased
same,baseline total GLP-1,"Male Sprague-Dawley rats [3]; before the oral glucose load, compared to vehicle and DPPIV treated animals",significantly increased
same,Insulin AUC,"Male Sprague-Dawley rats [3]; oral glucose tolerance test, between treatment groups",not significantly different
same,total GLP-1 AUC,"Male Sprague-Dawley rats [3]; oral glucose tolerance test, compared to vehicle and DPPIV treated animals",significantly increased
same,whole body insulin sensitivity,"Male Sprague Dawley rats; normal rats, euglycemic hyperinsulinemic clamp",enhances
same,euglycemia (plasma glucose at the end of the clamp),Male Sprague Dawley rats; [6],no significant difference
same,steady state insulin exposure,Male Sprague Dawley rats; [6],no significant difference
same,"glucose infusion rate required to maintain euglycemia, relative to vehicle","Male Sprague Dawley rats; rats, steady state 180 minutes after starting the clamp, insulin 1 mU/kg/min",three times
